Results on one molecule are retold here after patent US20120021434A1, “METHOD FOR TREATING B CELL REGULATED AUTOIMMUNE DISORDERS” (Synta Pharmaceuticals Corp., priority 2005, published 2012).

Assay [1] deals with ICSBP. Briefly: ICSBP expression (Western blot). Format: cell-based. Conditions: of the transcription factors analyzed. The method, then:
The 10% SDS Polyacrylamide gels (Inveitrogen) were transferred to Pure Nitrocellulose membrane (BioRed, Hercules, Calif.). The membranes were blocked with 5% milk in TBST buffer and incubated with anti-c-Rel, anti-p65, anti-p50, anti-ICSBP or anti-PU-1 antibody (all the antibodies were purchased from Santa Cruz) at a dilution of 1:500 for 1 h at room temperature or overnight at 4C. The membranes were washed and incubated with Horseradish Peroxidase-conjugated anti-rabbit IgG or anti-mouse IgG (Amersham, England) at a dilution of 1:2000 at room temperature for 1 h.
Of the transcription factors that have been analyzed, two factors, ICSBP and c-Rel, seem to be affected by Compound 4/Compound 50 treatment. ICSBP binds indirectly to the Ets-2 site. The primary NF-κB trans-activator for IL-12 is the c-Rel/p50 heterodimer. Other dimers (p65/p50 and p50/p50) either lack activity or have inhibitory functions. Thus, c-Rel plays a role in IL-12 transcription as a result of both activation through NF-κB and its interaction with ICSBP. […] The membranes were blocked with 5% milk in TBST buffer and then incubated with anti-c-Rel, anti-p65, anti-p50, anti-ICSBP or anti-PU-1 antibody (all the antibodies were purchased from Santa Cruz) at a dilution of 1:500 for 1 h at room temperature or overnight at 4° C. The membranes were washed and incubated with Horseradish Peroxidase-conjugated anti-rabbit IgG or anti-mouse IgG (Amersham, England) at a dilution of 1:2000 at room temperature for 1 h.
ICSBP, whose expression was reduced by Compound 50, was over-expressed using co-transfection with the IL-12 promoter-Luc report system. The over-expression construct of ICSBP was generated by PCR from cDNA of human PBMC using primers as follow: ICSBP-exp-F: 5′-[…]-3′ (SEQ ID NO:1) and ICSBP-exp-R: 5′-[…]-3′ (SEQ ID NO:2), the resulting PCR products was ligated to pCI vector (Promega).
(Immunoblotting shows a protein as a band on a membrane.)

Assay [2] concerns the target T1, c-Rel (Homo sapiens, UniProt Q04864).
T1 construct: a western blot assay of THP1 nuclear c-Rel, p50 and p65 proteins was carried out; endogenous in cells; host or cells: THP-1; Jurkat
T1 sequence (Q04864 1-619): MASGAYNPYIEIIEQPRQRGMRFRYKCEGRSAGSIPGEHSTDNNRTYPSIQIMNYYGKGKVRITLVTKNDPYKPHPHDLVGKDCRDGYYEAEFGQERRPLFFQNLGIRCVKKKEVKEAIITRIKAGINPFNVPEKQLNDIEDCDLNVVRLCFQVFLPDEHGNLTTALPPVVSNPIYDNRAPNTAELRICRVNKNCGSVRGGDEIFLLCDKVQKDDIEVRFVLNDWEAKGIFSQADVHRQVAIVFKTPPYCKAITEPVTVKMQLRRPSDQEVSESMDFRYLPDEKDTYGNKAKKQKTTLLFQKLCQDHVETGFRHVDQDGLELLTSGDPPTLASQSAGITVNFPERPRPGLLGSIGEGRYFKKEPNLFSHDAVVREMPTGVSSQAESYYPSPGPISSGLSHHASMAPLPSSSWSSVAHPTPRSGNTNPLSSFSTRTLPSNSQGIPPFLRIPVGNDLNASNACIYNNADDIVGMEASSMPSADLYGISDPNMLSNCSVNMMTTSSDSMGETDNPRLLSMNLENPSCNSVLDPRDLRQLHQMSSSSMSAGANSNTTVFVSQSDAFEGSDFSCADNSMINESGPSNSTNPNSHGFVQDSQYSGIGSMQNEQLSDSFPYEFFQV
Briefly: Western blot of THP-1 nuclear extracts: c-Rel. Format: cell-based. Conditions: of the transcription factors analyzed. The method, then: The THP-1 cell, Jurkat cell and RAW264.7 cell line were obtained from American Type Culture Collection (Manassas, Va.). The THP-1 Jurkat cells were cultured in RPMI 1640 (ATCC, Manassas, Va.), supplemented with 10% FCS (ATCC, Manassas, Va.), and 1% penicillin/Streptomycin (Gibco-BRL, New York, N.Y.). The RAW264.7 cells were cultured in DMEM (ATCC, Manassas, Va.) supplemented with 10% FCS (ATCC, Manassas, Va.), and 1% penicillin/Streptomycin (Gibco-BRL, New York, N.Y.). The cells were stimulated with human or murine recombinant IFNγ (100 ng/ml) for 10 h followed by LPS (1 μg/ml) or SAC (0.025%) CpG ([…]) in the presence or absence of Compound 50 at different concentrations for an additional incubation.
THP-1 cells were suspended in 20 volumes of buffer A containing 10 mM KCl, 10 mM HEPES (pH 7.9), 1 mM MgCl2, 1 mM dithiothreitol (DTT), 0.1% Nonidet p40 (NP-40), and 0.5 mM phenylmethylsulfonyl fluoride (PMSF) and homogenized and centrifuged at 10,000 rpm at 4C afor 5 min. Nuclear pellets were then suspended in buffer C containing 400 mM NaCl, 20 mM HEPES 9, pH 7.9), 15 mM MgCl2, 0.2 mM EDTA, 1 mM DTT, 25% glycerol, 1 mM PMSF, and 10 ug of leupeptin, 20 ug of pepstatin, and 10 ug/ml antipain, incubated for 30 min at 4C, and centrifuged at 14,000 rpm for 20 min. The supernatants were dialyzed against buffer D containing 100 mM NaCl, 20 mM HEPES (pH 7.9), 20% glycerol, 1 mM PMSF, and 1 mM DTT.
The 10% SDS Polyacrylamide gels (Inveitrogen) were transferred to Pure Nitrocellulose membrane (BioRed, Hercules, Calif.). The membranes were blocked with 5% milk in TBST buffer and incubated with anti-c-Rel, anti-p65, anti-p50, anti-ICSBP or anti-PU-1 antibody (all the antibodies were purchased from Santa Cruz) at a dilution of 1:500 for 1 h at room temperature or overnight at 4C. […]
Of the transcription factors that have been analyzed, two factors, ICSBP and c-Rel, seem to be affected by Compound 4/Compound 50 treatment. […]

Consider `C(=N\Nc1nc(OCCc2ccccn2)nc(N2CCOCC2)n1)/c1c[nH]c2ccccc12` [Compound 4], for which the “transcription factor ICSBP affected by treatment” value in assay [1] is “affected”. For the same molecule, the “transcription factor c-Rel affected by treatment” value in assay [2] is “affected”.
